Results from US8530504B2, “Pyrazolothiazole compound” (Eisai R&D Management Co., Ltd., priority 2009, dated 2013).

Target: human CRFR1 (Homo sapiens (Human), UniProt P34998)
Assay: CRFR1 Binding Test;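 also: nonspecific binding was determined with a 4,000-fold excess of unlabelled sauvagine and subtracted from every reading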
Settings: competition with 100 pM 125I-CRF, SPA method, membrane fraction of human CRFR1-expressing HEK293 cells; read-out: CRF1 receptor binding capacity IC50

human CRFR1, sequence (P34998 24-415): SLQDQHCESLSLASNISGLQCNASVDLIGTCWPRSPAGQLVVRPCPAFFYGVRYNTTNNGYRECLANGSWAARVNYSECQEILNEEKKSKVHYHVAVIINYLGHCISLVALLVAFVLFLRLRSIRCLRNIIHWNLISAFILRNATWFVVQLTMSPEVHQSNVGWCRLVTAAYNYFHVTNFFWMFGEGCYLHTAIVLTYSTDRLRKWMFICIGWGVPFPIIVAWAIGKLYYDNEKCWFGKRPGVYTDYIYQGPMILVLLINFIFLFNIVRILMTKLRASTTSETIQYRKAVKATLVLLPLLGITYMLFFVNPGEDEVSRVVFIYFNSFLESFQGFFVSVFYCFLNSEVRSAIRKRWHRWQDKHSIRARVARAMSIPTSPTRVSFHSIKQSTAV

IC50 [nM]	Structure (SMILES)
25	CCCCN(CCOC)c1c(OC)nn2c(-c3c(OC)cc(COCC)cc3OC)csc12 [Example 41, N-Butyl-3-[4-(ethoxymethyl)-2,6-dimethoxyphenyl]-6-methoxy-N-(2-methoxyethyl)pyrazolo[5,1-b][1,3]thiazole-7-amine]
64	CCCN(c1c(OC)nn2c(-c3c(OC)cc(CC)cc3OC)csc12)C1CCOCC1 [Example 22, [3-(4-Ethyl-2,6-dimethoxyphenyl)-6-methoxypyrazolo[5,1-b][1,3]thiazol-7-yl]-propyl-(tetrahydro-pyran-4-yl)amine]
52	COCc1cc(OC)c(-c2csc3c(N(C4CCC4)C4CCOC4)c(OC)nn23)c(OC)c1 (stereo not drawn) [Example 67, N-Cyclobutyl-3-[2,6-dimethoxy-4-(methoxymethyl)phenyl]-6-methoxy-N-(tetrahydrofuran-3-yl)pyrazolo[5,1-b][1,3]thiazole-7-amine]
53	COCc1cc(OC)c(-c2csc3c(N(CCCF)c4cccnc4)c(OC)nn23)c(OC)c1 [Example 88, 3-[2,6-Dimethoxy-4-(methoxymethyl)phenyl]-N-(3-fluoropropyl)-6-methoxy-N-pyridin-3-ylpyrazolo[5,1-b][1,3]thiazole-7-amine]
59	COCc1cc(OC)c(-c2csc3c(N(CCOC(C)C)CC4CC4)c(OC)nn23)c(OC)c1 [Example 49, N-(Cyclopropylmethyl)-3-[2,6-dimethoxy-4-(methoxymethyl)phenyl]-N-(2-isopropoxyethyl)-6-methoxypyrazolo[5,1-b][1,3]thiazole-7-amine]
48	CCOCCN(CC1CC1)c1c(OC)nn2c(-c3c(OC)cc(COC)cc3OC)csc12 [Example 45, N-(Cyclopropylmethyl)-3-[2,6-dimethoxy-4-(methoxymethyl)phenyl]-N-(2-ethoxyethyl)-6-methoxypyrazolo[5,1-b][1,3]thiazole-7-amine]
61	COCCCN(c1c(OC)nn2c(-c3c(OC)cc(COC)cc3OC)csc12)C1CCCC1 [Example 63, N-Cyclopentyl-3-[2,6-dimethoxy-4-(methoxymethyl)phenyl]-6-methoxy-N-(3-methoxypropyl)pyrazolo[5,1-b][1,3]thiazole-7-amine]
57	COCCCN(CC1CC1)c1c(OC)nn2c(-c3c(OC)cc(COC)cc3OC)csc12 [Example 32, N-(Cyclopropylmethyl)-3-[2,6-dimethoxy-4-(methoxymethyl)phenyl]-6-methoxy-N-(3-methoxypropyl)pyrazolo[5,1-b][1,3]thiazole-7-amine]
37	COCc1cc(OC)c(-c2csc3c(N(CC(C)C)CC4(OC)CC4)c(OC)nn23)c(OC)c1 [Example 76, 3-[2,6-Dimethoxy-4-(methoxymethyl)phenyl]-N-isobutyl-6-methoxy-N-[(1-methoxycyclopropyl)methyl]pyrazolo[5,1-b][1,3]thiazole-7-amine]
130	CCCN(c1c(OC)nn2c(-c3c(OC)cc(COC)cc3OC)csc12)C1CCCOCC1 (stereo not drawn) [Example 34, 3-[2,6-Dimethoxy-4-(methoxymethyl)phenyl]-6-methoxy-N-oxepan-4-yl-N-propylpyrazolo[5,1-b][1,3]thiazole-7-amine]
58	COCc1cc(OC)c(-c2csc3c(N(CCCF)Cc4cccnc4)c(OC)nn23)c(OC)c1 [Example 71, 3-[2,6-Dimethoxy-4-(methoxymethyl)phenyl]-N-(3-fluoropropyl)-6-methoxy-N-(pyridin-3-ylmethyl)-pyrazolo[5,1-b][1,3]thiazole-7-amine]
71	CCCCN(CC1COCOC1)c1c(OC)nn2c(-c3c(OC)cc(COC)cc3OC)csc12 [Example 12, Butyl-[3-(2,6-dimethoxy-4-methoxymethyl-phenyl)-6-methoxy-pyrazolo[5,1-b][1,3]thiazol-7-yl)-[1,3]dioxan-5-ylmethyl-amine]
76	CCCN(c1c(OCC)nn2c(-c3c(OC)cc(COC)cc3OC)csc12)C1CCOCC1 [Example 79, 3-[2,6-Dimethoxy-4-(methoxymethyl)phenyl]-6-ethoxy-N-propyl-N-(tetrahydro-2H-pyran-4-yl)pyrazolo[5,1-b][1,3]thiazole-7-amine]
57	CCCN(CCCOC)c1c(OC)nn2c(-c3c(OC)cc(COC)cc3OC)csc12 [Example 39, 3-[2,6-Dimethoxy-4-(methoxymethyl)phenyl]-6-methoxy-N-(3-methoxypropyl)-N-propylpyrazolo[5,1-b][1,3]thiazole-7-amine]
25	COCCN(CC1CCC1)c1c(OC)nn2c(-c3c(OC)cc(COC)cc3OC)csc12 [Example 48, N-(Cyclobutylmethyl)-3-[2,6-dimethoxy-4-(methoxymethyl)phenyl]-6-methoxy-N-(2-methoxyethyl)pyrazolo[5,1-b][1,3]thiazole-7-amine]
26	CCN(c1c(OC)nn2c(-c3c(OC)cc(COC)cc3OC)csc12)C1CCCC1 [Example 66, N-Cyclopentyl-3-[2,6-dimethoxy-4-(methoxymethyl)phenyl]-N-ethyl-6-methoxypyrazolo[5,1-b][1,3]thiazole-7-amine]
36	CCCN(c1cccnc1)c1c(OC)nn2c(-c3c(OC)cc(COC)cc3OC)csc12 [Example 87, 3-[2,6-Dimethoxy-4-(methoxymethyl)phenyl]-6-methoxy-N-propyl-N-pyridin-3-ylpyrazolo[5,1-b][1,3]thiazole-7-amine]
74	CCCCN(c1c(OC)nn2c(-c3c(OC)cc(COC(C)C)cc3OC)csc12)C1CCOCC1 [Example 75, Butyl-[3-(4-isopropoxymethyl-2,6-dimethoxy-phenyl)-6-methoxy-pyrazolo[5,1-b][1,3]thiazol-7-yl]-(tetrahydro-pyran-4-yl)amine]
26	CCCN(CCC)c1c(OC)nn2c(-c3c(OC)cc(COC)cc3OC)csc12 [Example 24, 3-[2,6-Dimethoxy-4-(methoxymethyl)phenyl]-6-methoxy-N,N-dipropylpyrazolo[5,1-b][1,3]thiazole-7-amine]

The remaining lines, values behind:

Structure (SMILES)	IC50 [nM]
CCCN(c1c(OC)nn2c(-c3c(OC)cc(C4CC4)cc3OC)csc12)C1CCOCC1 [Example 61, 3-(4-Cyclopropyl-2,6-dimethoxyphenyl)-6-methoxy-N-propyl-N-(tetrahydro-2H-pyran-4-yl)pyrazolo[5,1-b][1,3]thiazole-7-amine]	39
COc1cc(C)cc(OC)c1-c1csc2c(N(CC3CC3)C3CCOCC3)c(OC)nn12 [Example 25, N-(Cyclopropylmethyl)-3-(2,6-dimethoxy-4-methylphenyl)-6-methoxy-N-(tetrahydro-2H-pyran-4-yl)pyrazolo[5,1-b][1,3]thiazole-7-amine]	43
CCCN(c1c(OC)nn2c(-c3c(OC)cc(COC)cc3OC)c(CC)sc12)C1CCOCC1 [Example 9, [3-(2,6-Dimethoxy-4-methoxymethyl-phenyl)-2-ethyl-6-methoxy-pyrazolo[5,1-b][1,3]thiazol-7-yl]-propyl-(tetrahydro-pyran-4-yl)-amine]	116
CCN(CC1C2COCC21)c1c(OC)nn2c(-c3c(OC)cc(C4CC4)cc3OC)csc12 (single isomer, unassigned; diastereomer 1) [Example 97, 3-(4-Cyclopropyl-2,6-dimethoxyphenyl)-N-ethyl-6-methoxy-N-[3-oxabicyclo[3.1.0]hex-6-ylmethyl]pyrazolo[5,1-b][1,3]thiazole-7-amine (diastereomer 1)]	80
CCCN(c1c(OC)nn2c(-c3c(OC)cc(C)cc3OC)csc12)C1CCOCC1 [Example 17, 3-(2,6-Dimethoxy-4-methylphenyl)-6-methoxy-N-propyl-N-(tetrahydro-2H-pyran-4-yl)pyrazolo[5,1-b][1,3]thiazole-7-amine]	56
COCCN(c1c(OC)nn2c(-c3c(OC)cc(C#N)cc3OC)csc12)C1CCCC1 [Example 74, 4-{7-[Cyclopentyl(2-methoxyethyl)amino]-6-methoxypyrazolo[5,1-b][1,3]thiazol-3-yl}-3,5-dimethoxybenzonitrile]	52
CCN(c1c(OC)nn2c(-c3c(OC)cc(C4CC4)cc3OC)csc12)C1CCOCC1 [Example 64, 3-(4-Cyclopropyl-2,6-dimethoxyphenyl)-N-ethyl-6-methoxy-N-(tetrahydro-2H-pyran-4-yl)pyrazolo[5,1-b][1,3]thiazole-7-amine]	61
CCCN(CCC)c1c(C)nn2c(-c3c(OC)cc(COC)cc3OC)c([S+](C)[O-])sc12 (stereo not drawn) [Example 3, 3-[2,6-Dimethoxy-4-(methoxymethyl)phenyl]-6-methyl-2-(methylsulfinyl)-N,N-dipropylpyrazolo[5,1-b][1,3]thiazole-7-amine]	297
COCCCN(c1c(OC)nn2c(-c3c(Cl)cc(COC)cc3OC)csc12)C1CCCC1 [Example 73, 3-[2-Chloro-6-methoxy-4-(methoxymethyl)phenyl]-N-cyclopentyl-6-methoxy-N-(3-methoxypropyl)pyrazolo[5,1-b][1,3]thiazole-7-amine]	66
CCCN(CCC)c1c(C)nn2c(-c3c(OC)cc(COC)cc3OC)c(SC)sc12 [Example 2]	39
COCc1cc(OC)c(-c2c(C)sc3c(N(CC4CC4)CC4CCOC4)c(OC)nn23)c(OC)c1 (stereo not drawn) [Example 8, Cyclopropylmethyl-[3-(2,6-dimethoxy-4-methoxymethyl-phenyl)-6-methoxy-2-methyl-pyrazolo[5,1-b][1,3]thiazol-7-yl]-(tetrahydro-furan-3-ylmethyl)-amine]	51
COc1cc(C2CC2)cc(OC)c1-c1csc2c(N(CC3CC3)CC3CCOC3)c(OC)nn12 (stereo not drawn) [Example 60, 3-(4-Cyclopropyl-2,6-dimethoxyphenyl)-N-(cyclopropylmethyl)-6-methoxy-N-(tetrahydrofuran-3-ylmethyl)pyrazolo[5,1-b][1,3]thiazole-7-amine]	33
COCCCN(c1c(OC)nn2c(-c3c(OC)cc(C4CC4)cc3OC)csc12)C1CCCC1 [Example 69, N-Cyclopentyl-3-(4-cyclopropyl-2,6-dimethoxyphenyl)-6-methoxy-N-(3-methoxypropyl)pyrazolo[5,1-b][1,3]-thiazole-7-amine]	48
COc1cc(C(C)OC)cc(OC)c1-c1csc2c(N(CC3CC3)CC3CCOC3)c(OC)nn12 (stereo not drawn) [Example 19, N-(Cyclopropylmethyl)-3-[2,6-dimethoxy-4-(1-methoxyethyl)phenyl]-6-methoxy-N-(tetrahydrofuran-3-ylmethyl)pyrazolo[5,1-b][1,3]thiazole-7-amine]	52
